We go through three compounds from patent publication US7754880B2, “Uracils having a herbicidal activity” (Isagro Ricerca S.r.l., priority 2002, dated 2010).

What is called melting point is the temperature of the solid-liquid transition.

Series [1] concerns Amaranthus retroflexus. Briefly: Herbicidal activity in post-emergence. The conditions noted are these: dosage of 15 g/ha, fifteen days after the treatment, damage vs non-treated plants. The class given is in vivo. The method, then: (§1) Determination of the Herbicidal Activity and Phytotoxicity in Post-Emergence The herbicidal activity of the compounds of the invention in post-emergence was evaluated according to the following operative procedures. The vegetable species of interest (weeds or crops) were sown in pots with an upper diameter of 10 cm, a height of 10 cm and containing sandy soil. 10 pots were used for each vegetable species. Water was added to each pot in such a quantity as to germinate the seeds. The pots were divided into two groups, each containing 5 pots for each weed or crop. Fifteen days after sowing (ten, in the case of wheat), when the weeds and crops, according to the species, were 10-15 cm high, the first set of pots was treated with a hydro-acetonic dispersion containing acetone at 10% in volume, the product under evaluation at the desired concentration and Tween 20 at 0.5%. The second set was treated with a hydro-acetonic solution only, containing acetone at 10% in volume and Tween 20 at 0.5%, and was used as comparison (blank). All pots were kept under observation in a conditioned environment under the following conditions: temperature: 24° C.; relative humidity: 60%; photo-period: 16 ore; light intensity: 10000 lux. The pots were uniformly watered every other day so as to ensure a humidity degree sufficient for a good development of the plants.

For series [2], the system named is Sida spinosa. Briefly: Herbicidal activity in post-emergence. The class given is in vivo. The conditions noted are these: dosage of 15 g/ha, fifteen days after the treatment, damage vs non-treated plants. The method, then:
as §1

The test system of series [3] is Chenopodium album. Briefly: Herbicidal activity in post-emergence. The class given is in vivo. As to conditions: dosage of 15 g/ha, fifteen days after the treatment, damage vs non-treated plants. The method, then: as §1
Series [4] has as its system Portulaca oleracea. Briefly: Herbicidal activity in post-emergence. The class given is in vivo. The conditions noted are these: dosage of 15 g/ha, fifteen days after the treatment, damage vs non-treated plants. The method, then:
as §1

Series [5] has as its system Solanum nigrum. Briefly: Herbicidal activity in post-emergence. The conditions noted are these: dosage of 15 g/ha, fifteen days after the treatment, damage vs non-treated plants. The class given is in vivo. The method, then: as §1
In series [6] the test system is Abutilon theofrasti. Briefly: Herbicidal activity in post-emergence. As to conditions: dosage of 15 g/ha, fifteen days after the treatment, damage vs non-treated plants. The class given is in vivo. The method, then:
as §1

The test system of series [7] is Ipomea purpurea. Put plainly: Herbicidal activity in post-emergence. The class given is in vivo. As to conditions: dosage of 15 g/ha, fifteen days after the treatment, damage vs non-treated plants. The method, then: as §1
Series [8] relates to Galium aparine. Briefly: Herbicidal activity in pre-emergence. The class given is in vivo. As to conditions: dosage of 15 g/ha, fifteen days after the treatment, damage vs non-treated plants. The method, then: (§2) Determination of the Herbicidal Activity and Phytotoxicity in Pre-Emergence The herbicidal activity of the compounds of the invention in pre-emergence was evaluated according to the following operative procedures. The vegetable species of interest (weeds or crops) were sown in pots with an upper diameter of 10 cm, a height of 10 cm and containing sandy soil. 10 pots were used for each vegetable species. Water was added to each pot in such a quantity as to germinate the seeds. The pots were divided into two groups, each containing 5 pots for each weed or crop. After one day from the sowing, the first set of pots was treated with a hydro-acetonic dispersion containing acetone at 10% in volume, the product under evaluation at the desired concentration and Tween 20 at 0.5%. The second set was treated with a hydro-acetonic solution only, containing acetone at 10% in volume and Tween 20 at 0.5%, and was used as comparison (blank). All pots were kept under observation in a conditioned environment under the following conditions: temperature: 24° C.; relative humidity: 60%; photoperiod: 16 ore; light intensity: 10000 lux. The pots were uniformly watered in order to ensure a sufficient humidity degree for a good development of the plants.

Series [9] has as its system Amaranthus retroflexus. Put plainly: Herbicidal activity in pre-emergence. As to conditions: dosage of 15 g/ha, fifteen days after the treatment, damage vs non-treated plants. The class given is in vivo. The method, then:
as §2

Series [10] has as its system Sida spinosa. Briefly: Herbicidal activity in pre-emergence. The class given is in vivo. The conditions noted are these: dosage of 15 g/ha, fifteen days after the treatment, damage vs non-treated plants. The method, then:
as §2

The subject of series [11] is Chenopodium album. Briefly: Herbicidal activity in pre-emergence. The class given is in vivo. As to conditions: dosage of 15 g/ha, fifteen days after the treatment, damage vs non-treated plants. The method, then:
as §2

For series [12], the system named is Portulaca oleracea. Put plainly: Herbicidal activity in pre-emergence. The conditions noted are these: dosage of 15 g/ha, fifteen days after the treatment, damage vs non-treated plants. The class given is in vivo. The method, then:
as §2

The test system of series [13] is Solanum nigrum. Briefly: Herbicidal activity in pre-emergence. As to conditions: dosage of 15 g/ha, fifteen days after the treatment, damage vs non-treated plants. The class given is in vivo. The method, then:
as §2

For series [14], the system named is Abutilon theofrasti. Put plainly: Herbicidal activity in pre-emergence. The class given is in vivo. The conditions noted are these: dosage of 15 g/ha, fifteen days after the treatment, damage vs non-treated plants. The method, then: as §2
Series [15] deals with Ipomea purpurea. Briefly: Herbicidal activity in pre-emergence. The class given is in vivo. The conditions noted are these: dosage of 15 g/ha, fifteen days after the treatment, damage vs non-treated plants. The method, then:
as §2

The test system of series [16] is Galium aparine. Briefly: Herbicidal activity in post-emergence. The class given is in vivo. As to conditions: dosage of 15 g/ha, fifteen days after the treatment, damage vs non-treated plants. The method, then: as §1
Series [17] has as its system Convolvulus sepium. Put plainly: Herbicidal activity in post-emergence. The class given is in vivo. The conditions noted are these: dosage of 15 g/ha, fifteen days after the treatment, damage vs non-treated plants. The method, then:
as §1

Series [18] has as its system Convolvulus sepium. Put plainly: Herbicidal activity in pre-emergence. The class given is in vivo. The conditions noted are these: dosage of 15 g/ha, fifteen days after the treatment, damage vs non-treated plants. The method, then: as §2

As for `Cn1c(C(F)(F)F)cc(=O)n(-c2cc(OCc3nnc(C(C)(C)C)o3)c(Cl)cc2F)c1=O` [Compound No 6, 3-{5-[(5-tert-butyl-1,3,4-oxadiazol-2-yl)methoxy]-4-chloro-2-fluorophenyl}-1-methyl-6-(trifluoromethyl)-2,4(1H,3H)-pyrimidinedione], in the series with Amaranthus retroflexus [1], the “Herbicidal activity in post-emergence, AR” value is 3 (3=51-70% damage). Besides, the “Herbicidal activity in post-emergence, SS” value in the series with Sida spinosa [2] is 4 (4=71-90% damage). Moreover, the “Herbicidal activity in post-emergence, CA” value with Chenopodium album [3] is given as 4 (4=71-90% damage). Besides, the “Herbicidal activity in post-emergence, PO” value in the series on Portulaca oleracea [4] is 4 (4=71-90% damage). Also, the “Herbicidal activity in post-emergence, SN” value with Solanum nigrum [5] is on record as 5 (5=91% damage—death of the plant). Besides, the “Herbicidal activity in post-emergence, AT” value in the series with Abutilon theofrasti [6] was 5 (5=91% damage—death of the plant). For the same compound, the “Herbicidal activity in post-emergence, IP” value in the series with Ipomea purpurea [7] is 5 (5=91% damage—death of the plant). The “Herbicidal activity in pre-emergence, GA” value in the series on Galium aparine [8] is 5 (5=91% damage—death of the plant). Also, the “Herbicidal activity in pre-emergence, AR” value in the series with Amaranthus retroflexus [9] is 4 (4=71-90% damage). For the same compound, the “Herbicidal activity in pre-emergence, SS” value with Sida spinosa [10] is reported as 5 (5=91% damage—death of the plant). Besides, the “Herbicidal activity in pre-emergence, CA” value in the series with Chenopodium album [11] is 5 (5=91% damage—death of the plant). Moreover, the “Herbicidal activity in pre-emergence, PO” value with Portulaca oleracea [12] is listed as 5 (5=91% damage—death of the plant). In the series with Solanum nigrum [13], the “Herbicidal activity in pre-emergence, SN” value was 5 (5=91% damage—death of the plant). Further, in the series on Abutilon theofrasti [14], the “Herbicidal activity in pre-emergence, AT” value is given as 5 (5=91% damage—death of the plant). The “Herbicidal activity in pre-emergence, IP” value with Ipomea purpurea [15] was 4 (4=71-90% damage).
Turning to `COC(=O)/C=C(\COc1cc(-n2c(=O)cc(C(F)(F)F)n(C)c2=O)c(F)cc1Cl)OC` [Compound No 2, methyl (2E)-4-{2-chloro-4-fluoro-5-[1,2,3,6-tetrahydro-3-methyl-2,6-dioxo-4-(trifluoromethyl)pyrimidin-1-yl]phenoxy}-3-methoxybut-2-enoate], the “Herbicidal activity in post-emergence, GA” value in the series on Galium aparine [16] is listed as 5 (5=91% damage—death of the plant). For the same compound, the “Herbicidal activity in post-emergence, AR” value in the series on Amaranthus retroflexus [1] is 5 (5=91% damage—death of the plant). Moreover, in the series on Convolvulus sepium [17], the “Herbicidal activity in post-emergence, CS” value is 5 (5=91% damage—death of the plant). Also, the “Herbicidal activity in post-emergence, SS” value in the series on Sida spinosa [2] is listed as 5 (5=91% damage—death of the plant). In the series on Chenopodium album [3], the “Herbicidal activity in post-emergence, CA” value is listed as 5 (5=91% damage—death of the plant). In addition, the “Herbicidal activity in post-emergence, PO” value in the series with Portulaca oleracea [4] is 4 (4=71-90% damage). Moreover, in the series with Solanum nigrum [5], the “Herbicidal activity in post-emergence, SN” value was 5 (5=91% damage—death of the plant). Further, the “Herbicidal activity in post-emergence, AT” value in the series with Abutilon theofrasti [6] is 5 (5=91% damage—death of the plant). For the same compound, the “Herbicidal activity in post-emergence, IP” value with Ipomea purpurea [7] is recorded as 5 (5=91% damage—death of the plant). Besides, in the series with Galium aparine [8], the “Herbicidal activity in pre-emergence, GA” value is reported as 5 (5=91% damage—death of the plant). Further, the “Herbicidal activity in pre-emergence, AR” value with Amaranthus retroflexus [9] is listed as 5 (5=91% damage—death of the plant). In addition, the “Herbicidal activity in pre-emergence, CS” value in the series on Convolvulus sepium [18] is 5 (5=91% damage—death of the plant). In addition, the “Herbicidal activity in pre-emergence, SS” value in the series with Sida spinosa [10] is on record as 5 (5=91% damage—death of the plant). For the same compound, the “Herbicidal activity in pre-emergence, CA” value with Chenopodium album [11] is 5 (5=91% damage—death of the plant). The “Herbicidal activity in pre-emergence, PO” value in the series with Portulaca oleracea [12] is reported as 5 (5=91% damage—death of the plant). The “Herbicidal activity in pre-emergence, SN” value with Solanum nigrum [13] was 5 (5=91% damage—death of the plant). Also, the “Herbicidal activity in pre-emergence, AT” value in the series with Abutilon theofrasti [14] is listed as 5 (5=91% damage—death of the plant). Moreover, the “Herbicidal activity in pre-emergence, IP” value in the series on Ipomea purpurea [15] is on record as 5 (5=91% damage—death of the plant).
In the case of `Cn1nnc(-c2cc(-n3c(=O)cc(C(F)(F)F)n(C)c3=O)ccc2Cl)n1` [Compound No 13, 3-[4-chloro-3-(2-methyl-2H-tetrazol-5-yl)phenyl]-1-methyl-6-(trifluoromethyl)-2,4(1H,3H)-pyrimidinedione], the melting point is 192 °C. Besides, the “Herbicidal activity in post-emergence, AR” value in the series with Amaranthus retroflexus [1] is listed as 5 (5=91% damage—death of the plant). Besides, the “Herbicidal activity in post-emergence, SS” value with Sida spinosa [2] was 5 (5=91% damage—death of the plant). For the same compound, the “Herbicidal activity in post-emergence, CA” value in the series with Chenopodium album [3] was 5 (5=91% damage—death of the plant). In addition, in the series with Portulaca oleracea [4], the “Herbicidal activity in post-emergence, PO” value is 5 (5=91% damage—death of the plant). Also, the “Herbicidal activity in post-emergence, SN” value in the series with Solanum nigrum [5] is 5 (5=91% damage—death of the plant). Besides, the “Herbicidal activity in post-emergence, AT” value in the series with Abutilon theofrasti [6] is given as 5 (5=91% damage—death of the plant). Further, the “Herbicidal activity in post-emergence, IP” value with Ipomea purpurea [7] is 5 (5=91% damage—death of the plant). The “Herbicidal activity in pre-emergence, GA” value in the series on Galium aparine [8] is 5 (5=91% damage—death of the plant). In addition, the “Herbicidal activity in pre-emergence, AR” value in the series on Amaranthus retroflexus [9] is given as 5 (5=91% damage—death of the plant). For the same compound, in the series with Sida spinosa [10], the “Herbicidal activity in pre-emergence, SS” value is reported as 5 (5=91% damage—death of the plant). Further, in the series with Chenopodium album [11], the “Herbicidal activity in pre-emergence, CA” value was 5 (5=91% damage—death of the plant). Further, the “Herbicidal activity in pre-emergence, PO” value in the series on Portulaca oleracea [12] is reported as 5 (5=91% damage—death of the plant). In addition, the “Herbicidal activity in pre-emergence, SN” value in the series on Solanum nigrum [13] was 5 (5=91% damage—death of the plant). Also, the “Herbicidal activity in pre-emergence, AT” value in the series on Abutilon theofrasti [14] is 5 (5=91% damage—death of the plant). Further, the “Herbicidal activity in pre-emergence, IP” value in the series with Ipomea purpurea [15] is recorded as 5 (5=91% damage—death of the plant).
